One experiment relates to S. pyogenes UC 152. The experiment is described as follows: Murine Assay procedure: in vivo antimicrobial activity, survival of infected mice (S. pyogenes UC 152). More on the design: species or system S. pyogenes (infected female mice). The following applies: Streptococcus pyogenes, UC152, 144 h, oral, dosed 1 h and 5 h after i.p. infection, survival daily for six days.
In another experiment the test system is S. aureus UC 6685. The experiment is described as follows: Murine Assay procedure: in vivo antimicrobial activity, survival of infected mice (S. aureus UC 6685). More on the design: species or system Staphylococcus aureus (infected female mice). Particulars: Staphylococcus aureus. The procedure: (§1) Antimicrobial activity was tested in vivo using the Murine Assay procedure. Groups of female mice (six mice of 18-20 grams each) were injected intraperitoneally with bacteria which were thawed just prior to use and suspended in brain heart infusion with 4% brewers yeast (Staphylococcus aureus) or brain heart infusion (Streptococcus species). Antibiotic treatment at six dose levels per drug was administered one hour and five hours after affection by either oral intubation or subcutaneous routes. Survival was observed daily for six days. ED50 values based on mortality ratios were calculated using probit analysis. The subject compounds were compared against well-known antimicrobial as controls.

The next experiment concerns S. aureus UC 9213. The experiment is described as follows: Murine Assay procedure: in vivo antimicrobial activity, survival of infected mice (S. aureus UC 9213). More on the design: species or system Staphylococcus aureus (infected female mice). Particulars: dosed 1 h and 5 h after i.p. infection, survival daily for six days; for ED50: Staphylococcus aureus, UC9213, 144 h, oral, probit. The procedure:
as §1

For the next experiment, the system named is S. aureus UC 9271. The experiment is described as follows: Murine Assay procedure: in vivo antimicrobial activity, survival of infected mice (S. aureus UC 9271). On the set-up: species or system Staphylococcus aureus (infected female mice). The following applies: Staphylococcus aureus. The procedure: as §1
For another experiment, the system named is microbial infections. As to the kind of experiment: treatment of microbial infections (relative activity, test not given).

“And” between values parts separate entries of the source, which are not always exact repeats. Identical values can stand only once. Like-named read-outs stand apart in the source and are kept apart here.

Eleven molecules from patent US5700799A, “Oxazolidinone antimicrobials containing substituted diazine moieties” (Pharmacia & Upjohn Company, priority 1996, dated 1997) can be followed below.

By ED50 is commonly meant the midpoint of the dose-response relation. `COC(=O)N1CCN(c2ccc(N3CC(CNC(C)=O)OC3=O)cc2F)CC1` (stereo not shown) [Example 1, 4-(4-(5-((Acetylamino)methyl)-2-oxo-3-oxazolidinyl)-2-fluorophenyl)-1-piperazinecarboxylic acid, methyl ester]: the median effective dose (ED50) in the experiment on S. pyogenes UC 152 came to 2.3 mg/kg; in the experiment on S. aureus UC 6685 (UC6685, 144 h, S. aureus UC 6685, oral, dosed 1 h and 5 h after i.p. infection, survival daily for six days, read-out: ED50, PO), 4 mg/kg; with S. aureus UC 9213, 3.8 mg/kg; in the experiment on S. aureus UC 9271 (UC9271, 144 h, S. aureus UC 9271, oral, dosed 1 h and 5 h after i.p. infection, survival daily for six days, read-out: ED50, PO), 4 mg/kg. Moreover, the “activity relative to the Formula I compounds” value in the experiment on microbial infections is recorded as “most active”.
Turning to `O=C(O)c1cn(C2CC2)c2cc(N3CCNCC3)c(F)cc2c1=O` [Ciprofloxacin, reference compound], the ED50 with S. aureus UC 6685 (UC6685, sc, 144 h, read-out: Control, ED50, SC) stood at 6.6 mg/kg.
The molecule `COC(=O)N1CCN(c2ccc(N3CC(CNC(C)=O)OC3=O)cc2)CC1` (stereo not shown) [Example 3, 4-(4-(5-((Acetylamino)methyl)-2-oxo-3-oxazolidinyl)phenyl)-1-piperazinecarboxylic acid, methyl ester] showed a 50% effective dose (ED50) in the experiment on S. aureus UC 9213 of 10.4 mg/kg.
For `CC(=O)NCC1CN(c2ccc(N3CCN(C(=O)c4ccccc4)CC3)c(F)c2)C(=O)O1` (stereo not shown) [Example 7, N-((3-(4-(3-Fluoro-4-((benzoyl)-1-piperazinyl))phenyl)-2-oxo-5-oxazolidinyl)methyl)-acetamide], in the experiment on S. aureus UC 9213, it took a dose of 12 mg/kg to reach the 50% effect level (ED50).
With `CC(=O)NCC1CN(c2ccc(N3CCN(CC#N)CC3)c(F)c2)C(=O)O1` (stereo not shown) [Example 9], the “activity relative to the Formula I compounds” value in the experiment with microbial infections was “most active”.
In turn, `COCCN1CCN(c2ccc(N3C[C@H](CNC(C)=O)OC3=O)cc2F)CC1` [Example 36, (S)-N-[[3-[3-fluoro-4-[4-(2-methoxyethyl)-1-piperazinyl]phenyl]-2-oxo-5-oxazolidinyl]methyl]acetamide] displayed an ED50 with S. aureus UC 9213 of 7.9 mg/kg.
Same read-out and setting: with `COCCN1CCN(c2c(F)cc(N3C[C@H](CNC(C)=O)OC3=O)cc2F)CC1` [Example 37, (S)-N-[[3-[3,5-difluoro-4-[4-(2-methoxyethyl)-1-piperazinyl]phenyl]-2-oxo-5-oxazolidinyl]methyl]acetamide] the figure was 12.6 mg/kg; with `CC(=O)NCC1CN(c2ccc(N3CCN(CCC#N)CC3)c(F)c2)C(=O)O1` (stereo not shown) [Example 5, N-((3-(4-(3-Fluoro-4-(4-(2-Cyanoethyl)-1-piperazinyl))phenyl)-2-oxo-5-oxazolidinyl)methyl)-acetamide], 10 mg/kg; with `CC(=O)CCC(=O)N1CCN(c2ccc(N3CC(CNC(C)=O)OC3=O)cc2F)CC1` (racemic) [Example 10, (±)-N-[[3-[4-[4-(1,4-Dioxopentyl)-1-piperazinyl]-3-fluorophenyl]-2-oxo-5-oxazolidinyl]methyl)Acetamide], 9.4 mg/kg.
Regarding `CN[C@H](CC(C)C)C(=O)N[C@H]1C(=O)N[C@@H](CC(N)=O)C(=O)N[C@H]2C(=O)N[C@H]3C(=O)N[C@H](C(=O)N[C@H](C(=O)O)c4cc(O)cc(O)c4-c4cc3ccc4O)[C@H](O)c3ccc(c(Cl)c3)Oc3cc2cc(c3O[C@@H]2O[C@H](CO)[C@@H](O)[C@H](O)[C@H]2O[C@H]2C[C@](C)(N)[C@H](O)[C@H](C)O2)Oc2ccc(cc2Cl)[C@H]1O` [Vancomycin, reference compound], the “Control, ED50, SC” value in the experiment on S. aureus UC 9213 (control antibiotic, subcutaneous, 8640 min) is 1.8 mg/kg and 1.9 mg/kg. In addition, in the experiment with S. aureus UC 9271 (UC9271, sc, 144 h, read-out: Control, ED50, SC), the ED50 was 5.9 mg/kg.
In the experiment on S. aureus UC 9213, `CC(=O)NCC1CN(c2ccc(N3CCN(C(=O)OCCO)CC3)c(F)c2)C(=O)O1` (stereo not shown) [Example 6, 4-(4-(5-((acetylamino)methyl)-2-oxo-3-oxazolidinyl)-2-fluorophenyl)-1-piperazinecarboxylic acid, 2-hydroxyethyl ester] showed an ED50 of 12 mg/kg.
